{"source": "patent US20220144847A1", "about": "“HETEROCYCLIC COMPOUND, PHARMACEUTICAL COMPOSITION COMPRISING SAME, PREPARATION METHOD THEREFOR, AND USE THEREOF” (Sichuan Kelun-Biotech Biopharmaceutical Co., Ltd., priority 2019, published 2022)", "data": [{"biological_target": "RET-V804M (Homo sapiens, UniProt P07949, V804M)", "sequence (P07949 29-1114 V804M)": "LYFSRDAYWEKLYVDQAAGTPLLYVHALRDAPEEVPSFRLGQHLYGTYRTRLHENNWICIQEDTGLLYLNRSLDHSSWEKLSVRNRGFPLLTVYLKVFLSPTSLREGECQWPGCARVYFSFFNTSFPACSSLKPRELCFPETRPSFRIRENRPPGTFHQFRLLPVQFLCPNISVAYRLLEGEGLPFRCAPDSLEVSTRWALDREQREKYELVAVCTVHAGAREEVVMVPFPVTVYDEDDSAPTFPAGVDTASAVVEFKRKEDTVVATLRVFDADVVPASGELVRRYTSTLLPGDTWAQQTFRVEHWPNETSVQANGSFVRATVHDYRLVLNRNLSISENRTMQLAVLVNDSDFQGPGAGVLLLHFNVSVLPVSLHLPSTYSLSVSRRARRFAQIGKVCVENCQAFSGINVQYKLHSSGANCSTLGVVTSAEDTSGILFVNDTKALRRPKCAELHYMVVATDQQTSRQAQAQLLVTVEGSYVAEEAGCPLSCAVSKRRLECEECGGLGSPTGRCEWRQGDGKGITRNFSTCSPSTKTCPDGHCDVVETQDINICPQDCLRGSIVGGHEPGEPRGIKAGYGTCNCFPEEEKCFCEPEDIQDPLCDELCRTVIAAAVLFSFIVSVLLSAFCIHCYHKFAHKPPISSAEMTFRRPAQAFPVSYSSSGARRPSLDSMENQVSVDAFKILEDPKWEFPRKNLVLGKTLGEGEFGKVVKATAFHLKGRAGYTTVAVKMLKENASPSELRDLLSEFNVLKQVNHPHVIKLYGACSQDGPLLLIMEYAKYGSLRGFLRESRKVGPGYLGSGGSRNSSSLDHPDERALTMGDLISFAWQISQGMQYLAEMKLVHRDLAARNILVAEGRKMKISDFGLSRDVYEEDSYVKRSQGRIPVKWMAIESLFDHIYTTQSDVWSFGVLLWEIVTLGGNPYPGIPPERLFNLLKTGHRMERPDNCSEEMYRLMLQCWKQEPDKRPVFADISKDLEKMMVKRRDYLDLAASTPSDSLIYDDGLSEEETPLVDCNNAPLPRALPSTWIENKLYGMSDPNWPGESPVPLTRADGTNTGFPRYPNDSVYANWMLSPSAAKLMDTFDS", "experiment": "RET inhibition experiment (HTRF KinEASE-TK kit), mutant RET-V804M", "type": "biochemical", "details": "10 nM (Table 2); read-out: Inhibition rate on RET-V804M", "experimental": "(§1) Experimental method: According to the instructions of the HTRF KinEASE-TK kit (Cisbio), the compounds of the present disclosure were tested for their inhibitory effects on the activity of wild-type RET enzyme, mutant RET enzyme (RET-V804M, RET-V804L, and RET-M918T) and fusion-type RET enzyme (RET-CCDCl6). After pre-incubation of different RET enzymes and different concentrations of the test compounds at room temperature for 30 min, a substrate and adenosine triphosphate (ATP) were added to initiate the reaction. After incubation at room temperature for 40 min, TK antibody-cryptate and streptavidin-XL665 were added, and the test was performed after incubation at room temperature for 45 min. With the solvent group (DMSO) as the negative control and the buffer group (without RET enzyme) as the blank control, the relative inhibitory activity percentages (i.e., inhibition rates) of different concentrations of the compounds were computed as per the following formula:\n(§2) Relative inhibitory activity percentage=1−(compound group of different concentrations−blank control)/(negative control−blank control)*100%\n(§3) The relative inhibitory activity percentages of different concentrations of the compounds were plotted with respect to the compound concentrations, and the curve was fitted according to a four-parameter model to compute the IC50 value as per the following formula:\n(§4) y=min+(max−min)/(1+(x/IC50)^(−Hillslope))\n(§5) where y is the relative inhibitory activity percentage, max is the maximum value of the fitted curve, min is the minimum value of the fitted curve, x is the logarithmic concentration of the compound, and Hillslope is the slope of the curve.", "units": {"inhibition at 0.01 µM": "%"}, "values": [{"smiles": "Cc1cc(Nc2cc(C)[nH]n2)nc(-c2ccc(N3CC4CC(C3)N4Cc3ccc(-n4cc(F)cn4)cc3)nc2)n1", "note": "[Compound 91, 2-(6-(6-(4-(4-fluoro-1H-pyrazol-1-yl)benzyl)-3,6-diazabicyclo[3.1.1]heptan-3-yl)pyridin-3-yl)-6-methyl-N-(5-methyl-1H-pyrazol-3-yl)pyrimidin-4-amine]", "inhibition at 0.01 µM": 70}, {"smiles": "Cc1cc(Nc2cc(C)[nH]n2)nc(-c2ccc(N3CC4CC(C3)N4Cc3ccc(-n4ccc(F)n4)cc3)nc2)n1", "note": "[Compound 89, 2-(6-(6-(4-(3-fluoro-1H-pyrazol-1-yl)benzyl)-3,6-diazabicyclo[3.1.1]heptan-3-yl)pyridin-3-yl)-6-methyl-N-(5-methyl-1H-pyrazol-3-yl)pyrimidin-4-amine]", "inhibition at 0.01 µM": 70}, {"smiles": "Cc1cc(Nc2cc(C)[nH]n2)nc(-c2ccc(N3CC4CC(C3)N4Cc3ccc(-n4ncc(Cl)c4C)nc3)nc2)n1", "note": "[Compound 28′, 2-(6-(6-((6-(4-chloro-5-methyl-1H-pyrazol-1-yl)pyridin-3-yl)methyl)-3,6-diazabicyclo[3.1.1]heptan-3-yl)pyridin-3-yl)-6-methyl-N-(5-methyl-1H-pyrazol-3-yl)pyrimidin-4-amine]", "inhibition at 0.01 µM": 34}]}, {"biological_target": "RET-V804M (Homo sapiens, UniProt P07949, V804M)", "experiment": "RET inhibition experiment (HTRF KinEASE-TK kit), mutant RET-V804M", "type": "biochemical", "details": "100 nM (Table 2); read-out: Inhibition rate on RET-V804M", "experimental": "as §1, §2, §3, §4, §5", "units": {"inhibition at 0.1 µM": "%"}, "values": [{"smiles": "Cc1cc(Nc2cc(C)[nH]n2)nc(-c2ccc(N3CC4CC(C3)N4Cc3ccc(-n4cc(CF)cn4)nc3)nc2)n1", "note": "[Compound 126, 2-(6-(6-((6-(4-fluoromethyl-1H-pyrazol-1-yl)pyridin-3-yl)methyl)-3,6-diazabicyclo[3.1.1]heptan-3-yl)pyridin-3-yl)-6-methyl-N-(5-methyl-1H-pyrazol-3-yl)pyrimidin-4-amine]", "inhibition at 0.1 µM": 82}, {"smiles": "Cc1cc(Nc2cc(C)[nH]n2)nc(-c2ccc(N3CC4CC(C3)N4Cc3cnccc3C)nc2)n1", "note": "[Compound 21, 6-methyl-N-(5-methyl-1H-pyrazol-3-yl)-2-(6-(6-((4-methylpyridin-3-yl)methyl)-3,6-diazabicyclo[3.1.1]heptan-3-yl)pyridin-3-yl)pyrimidin-4-amine]", "inhibition at 0.1 µM": 49}, {"smiles": "COc1cncc(CN2C3CC2CN(c2ccc(-c4nc(C)cc(Nc5cc(C)[nH]n5)n4)cn2)C3)c1", "note": "[Compound 18, 2-(6-(6-((5-methoxypyridin-3-yl)methyl)-3,6-diazabicyclo[3.1.1]heptan-3-yl)pyridin-3-yl)-6-methyl-N-(5-methyl-1H-pyrazol-3-yl)pyrimidin-4-amine]", "inhibition at 0.1 µM": 70}, {"smiles": "COc1ccc(CN2CCN(c3ccc(-c4nc(C)cc(Nc5cc(C)[nH]n5)n4)cn3)CC2)cn1", "note": "[Compound 49, 2-(6-(4-((6-methoxypyridin-3-yl)methyl)piperazin-1-yl)pyridin-3-yl)-6-methyl-N-(5-methyl-1H-pyrazol-3-yl)pyrimidin-4-amine]", "inhibition at 0.1 µM": 75}, {"smiles": "Cc1ccc(CN2C3CC2CN(c2ccc(-c4nc(C)cc(Nc5cc(C)[nH]n5)n4)cn2)C3)cn1", "note": "[Compound 16, 6-methyl-N-(5-methyl-1H-pyrazol-3-yl)-2-(6-(6-((6-methylpyridin-3-yl)methyl)-3,6-diazabicyclo[3.1.1]heptan-3-yl)pyridin-3-yl)pyrimidin-4-amine]", "inhibition at 0.1 µM": 92}, {"smiles": "Cc1cc(Nc2cc(C)[nH]n2)nc(-c2ccc(N3CC4CC(C3)N4Cc3ccc(C(F)(F)F)nc3)nc2)n1", "note": "[Compound 118, 6-methyl-N-(5-methyl-1H-pyrazol-3-yl)-2-(6-(6-((6-(trifluoromethyl)pyridin-3-yl)methyl)-3,6-diazabicyclo[3.1.1]heptan-3-yl)pyridin-3-yl)pyrimidin-4-amine]", "inhibition at 0.1 µM": 74}, {"smiles": "COc1ccc(CC(=O)N2CCN(c3ccc(-c4nc(C)cc(Nc5cc(C)[nH]n5)n4)cn3)CC2)cn1", "note": "[Compound 111, 2-(6-methoxypyridin-3-yl)-1-(4-(5-(4-methyl-6-((5-methyl-1H-pyrazol-3-yl)amino)pyrimidin-2-yl)pyridin-2-yl)piperazin-1-yl)ethan-1-one]", "inhibition at 0.1 µM": 46}, {"smiles": "Cc1cc(Nc2cc(C)[nH]n2)nc(-c2ccc(N3CC4CC(C3)N4Cc3cncc(F)c3)nc2)n1", "note": "[Compound 98, 2-(6-(6-((5-fluoropyridin-3-yl)methyl)-3,6-diazabicyclo[3.1.1]heptan-3-yl)pyridin-3-yl)-6-methyl-N-(5-methyl-1H-pyrazol-3-yl)pyrimidin-4-amine]", "inhibition at 0.1 µM": 63}, {"smiles": "Cc1cc(Nc2cc(C)[nH]n2)nc(-c2ccc(N3CC4CC(C3)N4Cc3ccc(C#N)nc3)nc2)n1", "note": "[Compound 117, 5-((3-(5-(4-methyl-6-((5-methyl-1H-pyrazol-3-yl)-amino)pyrimidin-2-yl)pyridin-2-yl)-3,6-diazabicyclo[3.1.1]heptan-6-yl)methyl)-2-cyanopyridine]", "inhibition at 0.1 µM": 76}, {"smiles": "Cc1cc(Nc2cc(C)[nH]n2)nc(-c2ccc(N3CC4CC(C3)N4Cc3ccc(-n4cc(CO)cn4)nc3)nc2)n1", "note": "[Compound 127, (1-(5-((3-(5-(4-methyl-6-((5-methyl-1H-pyrazol-3-yl)amino)pyrimidin-2-yl)pyridin-2-yl)-3,6-diazabicyclo[3.1.1]heptan-6-yl)methyl)pyridin-2-yl)-1H-pyrazol-4-yl)methanol]", "inhibition at 0.1 µM": 84}, {"smiles": "COc1ccc(CN2C3CC2CN(c2ccc(-c4nc(C)cc(Nc5cc(C)[nH]n5)n4)cn2)C3)nc1", "note": "[Compound 67, 2-(6-(6-((5-methoxypyridin-2-yl)methyl)-3,6-diazabicyclo[3.1.1]heptan-3-yl)pyridin-3-yl)-6-methyl-N-(5-methyl-1H-pyrazol-3-yl)pyrimidin-4-amine]", "inhibition at 0.1 µM": 82}, {"smiles": "COc1ccc(C(=O)N2CCN(c3ccc(-c4nc(C)cc(Nc5cc(C)[nH]n5)n4)cn3)CC2)cn1", "note": "[Compound 110, (6-methoxypyridin-3-yl)(4-(5-(4-methyl-6-((5-methyl-1H-pyrazol-3-yl)amino)pyrimidin-2-yl)pyridin-2-yl)piperazin-1-yl)methanone]", "inhibition at 0.1 µM": 62}]}, {"biological_target": "RET-V804M (Homo sapiens, UniProt P07949, V804M)", "experiment": "RET inhibition experiment (HTRF KinEASE-TK kit), mutant RET-V804M", "type": "biochemical", "details": "read-out: Inhibition rate on RET-V804M", "experimental": "as §1, §2, §3, §4, §5", "units": {"inhibition at 0.1 µM": "%"}, "values": [{"smiles": "Cc1cc(Nc2cc(C)[nH]n2)nc(-c2ccc(N3CC4CC(C3)N4Cc3ccc(C#N)cc3)nc2)n1", "note": "[Compound 85, 4-((3-(5-(4-methyl-6-((5-methyl-1H-pyrazol-3-yl)-amino)pyrimidin-2-yl)pyridin-2-yl)-3,6-diazabicyclo[3.1.1]heptan-6-yl)methyl)benzonitrile]", "inhibition at 0.1 µM": 77}, {"smiles": "COc1ccc(C(C)N2C3CC2CN(c2ccc(-c4nc(C)cc(Nc5cc(C)[nH]n5)n4)cn2)C3)cc1", "note": "(stereo not drawn) [Compound 50, 2-(6-(6-(1-(4-methoxyphenyl)ethyl)-3,6-diazabicyclo[3.1.1]heptan-3-yl)pyridin-3-yl)-6-methyl-N-(5-methyl-1H-pyrazol-3-yl)pyrimidin-4-amine]", "inhibition at 0.1 µM": 50}, {"smiles": "Cc1cc(Nc2cc(C)[nH]n2)nc(-c2ccc(N3CC4CC(C3)N4Cc3ccc(C(F)(F)F)cc3)nc2)n1", "note": "[Compound 84, 6-methyl-N-(5-methyl-1H-pyrazol-3-yl)-2-(6-(6-(4-(trifluoromethyl)benzyl)-3,6-diazabicyclo[3.1.1]heptan-3-yl)pyridin-3-yl)pyrimidin-4-amine]", "inhibition at 0.1 µM": 72}]}, {"biological_target": "RET-V804M (Homo sapiens, UniProt P07949, V804M)", "experiment": "RET inhibition experiment (HTRF KinEASE-TK kit), mutant RET-V804M", "type": "biochemical", "details": "read-out: The IC50 (nM) for inhibiting V804M", "experimental": "as §1, §2, §3, §4, §5", "units": {"IC50": "nM"}, "values": [{"smiles": "Cc1cc(Nc2cc(C)[nH]n2)nc(-c2ccc(N3CC4CC(C3)N4Cc3ccc(-n4nccc4C(C)(C)O)nc3)nc2)n1", "note": "[Compound 136, 2-(1-(5-((3-(5-(4-methyl-6-((5-methyl-1H-pyrazol-3-yl)-amino)pyrimidin-2-yl)pyridin-2-yl)-3,6-diazabicyclo[3.1.1]heptan-6-yl)methyl)pyridin-2-yl)-1H-pyrazol-5-yl)propan-2-ol]", "IC50": "2.35 ± 0.13"}]}, {"biological_target": "VEGFR2 (Homo sapiens, UniProt P35968)", "sequence (P35968 20-1356, species assumed)": "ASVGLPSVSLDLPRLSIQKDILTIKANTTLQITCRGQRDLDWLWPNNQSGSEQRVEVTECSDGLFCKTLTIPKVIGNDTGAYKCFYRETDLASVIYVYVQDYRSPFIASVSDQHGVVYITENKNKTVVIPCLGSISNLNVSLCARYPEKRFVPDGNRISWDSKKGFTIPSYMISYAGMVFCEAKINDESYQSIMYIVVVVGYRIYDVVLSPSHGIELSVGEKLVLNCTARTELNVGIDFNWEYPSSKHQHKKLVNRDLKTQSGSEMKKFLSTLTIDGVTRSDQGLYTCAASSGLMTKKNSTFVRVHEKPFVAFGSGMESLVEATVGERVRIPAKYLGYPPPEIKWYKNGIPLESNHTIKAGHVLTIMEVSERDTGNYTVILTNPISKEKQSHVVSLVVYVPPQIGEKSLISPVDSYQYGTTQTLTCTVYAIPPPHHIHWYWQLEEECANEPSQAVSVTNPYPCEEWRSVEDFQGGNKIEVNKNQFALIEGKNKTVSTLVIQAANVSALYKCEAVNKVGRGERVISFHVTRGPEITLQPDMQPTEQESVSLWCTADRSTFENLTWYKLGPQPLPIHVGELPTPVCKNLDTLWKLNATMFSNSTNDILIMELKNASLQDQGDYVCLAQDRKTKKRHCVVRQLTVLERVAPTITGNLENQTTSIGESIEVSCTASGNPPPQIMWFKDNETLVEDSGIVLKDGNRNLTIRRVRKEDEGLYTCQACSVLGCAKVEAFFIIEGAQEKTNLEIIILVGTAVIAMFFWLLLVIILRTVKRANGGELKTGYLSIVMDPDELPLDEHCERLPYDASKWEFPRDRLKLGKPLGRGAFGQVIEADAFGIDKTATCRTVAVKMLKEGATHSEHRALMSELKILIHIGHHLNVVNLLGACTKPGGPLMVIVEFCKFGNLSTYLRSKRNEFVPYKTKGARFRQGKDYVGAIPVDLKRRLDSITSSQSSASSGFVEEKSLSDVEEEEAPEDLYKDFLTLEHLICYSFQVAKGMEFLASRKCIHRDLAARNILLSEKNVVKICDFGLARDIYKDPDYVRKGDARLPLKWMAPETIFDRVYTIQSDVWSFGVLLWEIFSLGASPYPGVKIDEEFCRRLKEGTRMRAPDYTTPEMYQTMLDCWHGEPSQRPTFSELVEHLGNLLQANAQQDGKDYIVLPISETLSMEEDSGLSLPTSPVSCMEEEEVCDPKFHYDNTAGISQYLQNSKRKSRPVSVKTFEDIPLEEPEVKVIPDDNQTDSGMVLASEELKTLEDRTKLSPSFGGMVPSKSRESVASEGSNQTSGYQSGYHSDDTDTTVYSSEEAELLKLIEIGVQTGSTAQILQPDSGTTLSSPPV", "experiment": "VEGFR2 inhibition experiment (HTRF KinEASE-TK kit)", "type": "biochemical", "details": "30 nM; read-out: Inhibition rate on VEGFR2", "experimental": "(§6) Experimental method: According to the instructions of the HTRF KinEASE-TK kit (Cisbio), the compounds of the present disclosure were tested for their inhibitory effects on the VEGFR2 enzyme activity. After pre-incubation of the VEGFR2 enzyme and different concentrations of test compounds at room temperature for 30 min, a substrate and adenosine triphosphate (ATP) were added to initiate the reaction. After incubation at room temperature for 40 min, TK antibody-cryptate and streptavidin-XL665 were added, and the test was performed after incubation at room temperature for 45 min. With the solvent group (DMSO) as the negative control and the buffer group (without VEGFR2 enzyme) as the blank control, the relative inhibitory activity percentages (i.e., inhibition rates) of different concentrations of the compounds were computed as per the following formula:\nas §2, §3, §4, §5", "units": {"inhibition at 0.03 µM": "%"}, "values": [{"smiles": "Cc1cc(Nc2cc(C)[nH]n2)nc(-c2ccc(N3CC4CC(C3)N4Cc3ccc(-n4nccc4C(C)(C)O)nc3)nc2)n1", "note": "[Compound 136, 2-(1-(5-((3-(5-(4-methyl-6-((5-methyl-1H-pyrazol-3-yl)-amino)pyrimidin-2-yl)pyridin-2-yl)-3,6-diazabicyclo[3.1.1]heptan-6-yl)methyl)pyridin-2-yl)-1H-pyrazol-5-yl)propan-2-ol]", "inhibition at 0.03 µM": 18}]}, {"biological_target": "VEGFR2 (Homo sapiens, UniProt P35968)", "experiment": "VEGFR2 inhibition experiment (HTRF KinEASE-TK kit)", "type": "biochemical", "details": "100 nM; read-out: Inhibition rate on VEGFR2", "experimental": "as §6, §2, §3, §4, §5", "units": {"inhibition at 0.1 µM": "%"}, "values": [{"smiles": "Cc1cc(Nc2cc(C)[nH]n2)nc(-c2ccc(N3CC4CC(C3)N4Cc3ccc(-n4cc(F)cn4)cc3)nc2)n1", "note": "[Compound 91, 2-(6-(6-(4-(4-fluoro-1H-pyrazol-1-yl)benzyl)-3,6-diazabicyclo[3.1.1]heptan-3-yl)pyridin-3-yl)-6-methyl-N-(5-methyl-1H-pyrazol-3-yl)pyrimidin-4-amine]", "inhibition at 0.1 µM": 26}, {"smiles": "Cc1cc(Nc2cc(C)[nH]n2)nc(-c2ccc(N3CC4CC(C3)N4Cc3ccc(-n4ccc(F)n4)cc3)nc2)n1", "note": "[Compound 89, 2-(6-(6-(4-(3-fluoro-1H-pyrazol-1-yl)benzyl)-3,6-diazabicyclo[3.1.1]heptan-3-yl)pyridin-3-yl)-6-methyl-N-(5-methyl-1H-pyrazol-3-yl)pyrimidin-4-amine]", "inhibition at 0.1 µM": 16}, {"smiles": "Cc1cc(Nc2cc(C)[nH]n2)nc(-c2ccc(N3CC4CC(C3)N4C(C)c3ccc(-n4cc(F)cn4)nc3)nc2)n1", "note": "(stereo not drawn) [Compound 52, 2-(6-(6-(1-(6-(4-fluoro-1H-pyrazol-1-yl)pyridin-3-yl)ethyl)-3,6-diazabicyclo[3.1.1]heptan-3-yl)pyridin-3-yl)-6-methyl-N-(5-methyl-1H-pyrazol-3-yl)pyrimidin-4-amine]", "inhibition at 0.1 µM": -5}]}, {"biological_target": "VEGFR2 (Homo sapiens, UniProt P35968)", "experiment": "VEGFR2 inhibition experiment (HTRF KinEASE-TK kit)", "type": "biochemical", "details": "300 nM; read-out: Inhibition rate on VEGFR2", "experimental": "as §6, §2, §3, §4, §5", "units": {"inhibition at 0.3 µM": "%"}, "values": [{"smiles": "Cc1cc(Nc2cc(C)[nH]n2)nc(-c2ccc(N3CC4CC(C3)N4C(C)c3ccc(-n4cccn4)nc3)nc2)n1", "note": "(stereo not drawn) [Compound 125, 2-(6-(6-(1-(6-(1H-pyrazol-1-yl)pyridin-3-yl)ethyl)-3,6-diazabicyclo[3.1.1]heptan-3-yl)pyridin-3-yl)-6-methyl-N-(5-methyl-1H-pyrazol-3-yl)pyrimidin-4-amine]", "inhibition at 0.3 µM": 44}]}]}
